Experimental data taken from patent US6358885B1, “Substituted phenylheterocyclic herbicides” (Mississippi State University, priority 1992, dated 2002).

Key:
velvetleaf = experiment: Test B preemergence/postemergence greenhouse plant response rating 0 to 10; type: in vivo, Abutilon theophrasti; conditions: 0 to 10 scale
Method in brief: (§1)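 Postemergence treatment of plants two to eighteen cm tall ran alongside preemergence treatment of planted seed, each using compound in a non-phytotoxic solvent.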

wild buckwheat = experiment: as above; type: in vivo, Polygonum convolvulus; conditions: 0 to 10 scale
Method in brief: as §1

barley [1] = experiment: as above; type: in vivo, Hordeum vulgare; conditions: 0 to 10 scale
Method in brief: as §1

morningglory = experiment: as above; type: in vivo, Ipomoea hederacea; conditions: 0 to 10 scale
Method in brief: as §1

umbrella sedge = experiment: Test C flood test plant response rating 0 to 100; type: in vivo, Cyperus difformis; conditions: for Plant response rating Umbrella sedge: flood test species listed under POSTEMERGENCE, 0 to 100 scale
Description: The compounds evaluated in this test were formulated in a non-phytoxic solvent and applied to the soil surface before plant seedlings emerged (preemergence application), to water that covered the soil surface (flood application), and to plants that were in the one-to-four leaf stage (postemergence application). A sandy loam soil was used for the preemergence and postemergence tests, while a silt loam soil was used in the flood test. Water depth was approximately 2.5 cm for the flood test and was maintained at this level for the duration of the test. Plant species in the preemergence and postemergence tests consisted of barley (Hordeum vulgare), bedstraw (Galium aparine), blackgrass (Alopecurus myosuroides), chickweed (Stellaria media), corn (Zea mays), cotton (Gossypium hirsutum), crabgrass (Digitaria sanguinalis), downy brome (Bromus tectorum), giant foxtail (Setaria faberii), lambsquarters (Chenopodium album), morningglory (Ipomoea hederacea), pigweed ([…]), rape (Brassica napus), ryegrass (Lolium multiflorum), sorghum (Sorghum bicolor), soybean (Glycine max), speedwell (Veronica persica), sugar beet (Beta vulgaris), velvetleaf (Abutilon theophrasti), wheat (Triticum aestivum), wild buckwheat (Polygonum convolvulus), and wild oat (Avena fatua). All plant species were planted one day before application of the compound for the preemergence portion-of this test. Plantings of these species were adjusted to produce plants of appropriate size for the post-emergence portion of the test. […] All plant species were grown using normal greenhouse practices. Visual evaluations of injury expressed on treated plants, when compared to untreated controls, were recorded approximately fourteen to twenty one days after application of the test compound. […] A dash (-) response means no test result.

rape = experiment: Test C preemergence/postemergence greenhouse plant response rating 0 to 100; type: in vivo, Brassica napus; conditions: POSTEMERGENCE; for Plant response rating, Rape: 0 to 100 scale
Method in brief: (§2)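 Compounds in non-phytotoxic solvent applied preemergence to sandy loam one day after planting, postemergence at the 1–4 leaf stage, or to ~2.5 cm floodwater over silt loam.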

bedstraw = experiment: Test B preemergence/postemergence greenhouse plant response rating 0 to 10; type: in vivo, Galium aparine; conditions: 0 to 10 scale
Method in brief: as §1

soybean [2] = experiment: Test C preemergence/postemergence greenhouse plant response rating 0 to 100; type: in vivo, Glycine max; conditions: POSTEMERGENCE; for Plant response rating, Soybean: 0 to 100 scale
Method in brief: as §2

sorghum = experiment: Test B preemergence/postemergence greenhouse plant response rating 0 to 10; type: in vivo, Sorghum bicolor; conditions: 0 to 10 scale
Method in brief: as §1

barley [3] = experiment: Test C preemergence/postemergence greenhouse plant response rating 0 to 100; type: in vivo, Hordeum vulgare; conditions: POSTEMERGENCE; for Plant response rating Barley Igri: 0 to 100 scale
Method in brief: as §2

blackgrass = experiment: as above; type: in vivo, Alopecurus myosuroides; conditions: POSTEMERGENCE; for Plant response rating, Blackgrass: 0 to 100 scale
Method in brief: as §2

soybean [4] = experiment: Test B preemergence/postemergence greenhouse plant response rating 0 to 10; type: in vivo, Glycine max; conditions: 0 to 10 scale
Method in brief: as §1

cocklebur = experiment: as above; type: in vivo, Xanthium pensylvanicum; conditions: 0 to 10 scale
Method in brief: as §1

pigweed = experiment: Test C preemergence/postemergence greenhouse plant response rating 0 to 100; type: in vivo, Amaranthusretroflexus; conditions: POSTEMERGENCE; for Plant response rating Pigweed: 0 to 100 scale
Method in brief: as §2

ryegrass = experiment: as above; type: in vivo, Lolium multiflorum; conditions: POSTEMERGENCE; for Plant response rating Ryegrass: 0 to 100 scale
Method in brief: as §2

sugar beet = experiment: Test B preemergence/postemergence greenhouse plant response rating 0 to 10; type: in vivo, Beta vulgaris; conditions: 0 to 10 scale
Method in brief: as §1

chickweed [5] = experiment: as above; type: in vivo, Stellaria media; conditions: 0 to 10 scale
Method in brief: as §1

chickweed [6] = experiment: Test C preemergence/postemergence greenhouse plant response rating 0 to 100; type: in vivo, Stellaria media; conditions: POSTEMERGENCE; for Plant response rating, Chickweed: 0 to 100 scale
Method in brief: as §2

Structure (SMILES): COC(=O)c1cc(-c2nn3c(c2Cl)CCCC3)c(F)cc1Cl [Compound 43]
- Plant response rating, Velvetleaf (velvetleaf; POSTEMERGENCE, Rate 50 g/ha): 10
- Plant response rating, Velvetleaf (velvetleaf; PREEMERGENCE, Rate 50 g/ha): 5
- Plant response rating, Velvetleaf (velvetleaf; Rate 200 g/ha, POSTEMERGENCE): 10
- Plant response rating, Velvetleaf (velvetleaf; Rate 200 g/ha, PREEMERGENCE): 10
- Plant response rating, Wild buckwheat (wild buckwheat; POSTEMERGENCE, Rate 50 g/ha): 10
- Plant response rating, Wild buckwheat (wild buckwheat; PREEMERGENCE, Rate 50 g/ha): 8
- Plant response rating, Wild buckwheat (wild buckwheat; Rate 200 g/ha, POSTEMERGENCE): 10
- Plant response rating, Wild buckwheat (wild buckwheat; Rate 200 g/ha, PREEMERGENCE): 10
- Plant response rating, Barley (barley [1]; POSTEMERGENCE, Rate 50 g/ha): 3
- Plant response rating, Barley (barley [1]; POSTEMERGENCE, Rate 200 g/ha): 3
- Plant response rating, Barley (barley [1]; PREEMERGENCE, Rate 50 g/ha): 0
- Plant response rating, Barley (barley [1]; Rate 200 g/ha, PREEMERGENCE): 0
- Plant response rating, Morningglory (morningglory; POSTEMERGENCE, Rate 50 g/ha): 10
- Plant response rating, Morningglory (morningglory; PREEMERGENCE, Rate 50 g/ha): 0
- Plant response rating, Morningglory (morningglory; Rate 200 g/ha, POSTEMERGENCE): 10
- Plant response rating, Morningglory (morningglory; Rate 200 g/ha, PREEMERGENCE): 0
- Plant response rating (0 to 100), Umbrella sedge (umbrella sedge; POSTEMERGENCE section, flood test, Rate 4 g/ha): 0
- Plant response rating (0 to 100), Umbrella sedge (umbrella sedge; Rate 16 g/ha, under POSTEMERGENCE head (flood test species)): 0
- Plant response rating Umbrella sedge (umbrella sedge; 62 g/ha): 60
- Plant response rating Umbrella sedge (umbrella sedge; 250 g/ha): 70
- Plant response rating, Rape (rape; 62 g/ha): 100
- Plant response rating, Rape (rape; 250 g/ha): 100
- Plant response rating (0 to 100), Rape (rape; Rate 4 g/ha): 80
- Plant response rating (0 to 100), Rape (rape; Rate 16 g/ha): 100
- Plant response rating, Bedstraw (bedstraw; POSTEMERGENCE, Rate 50 g/ha): 10
- Plant response rating, Bedstraw (bedstraw; POSTEMERGENCE, Rate 200 g/ha): 10
- Plant response rating, Bedstraw (bedstraw; PREEMERGENCE, Rate 50 g/ha): 0
- Plant response rating, Bedstraw (bedstraw; Rate 200 g/ha, PREEMERGENCE): 9
- Plant response rating, Soybean (soybean [2]; 62 g/ha): 70
- Plant response rating, Soybean (soybean [2]; 250 g/ha): 90
- Plant response rating (0 to 100), Soybean (soybean [2]; Rate 4 g/ha): 40
- Plant response rating (0 to 100), Soybean (soybean [2]; Rate 16 g/ha): 50
- Plant response rating, Sorghum (sorghum; POSTEMERGENCE, Rate 50 g/ha): 5
- Plant response rating, Sorghum (sorghum; PREEMERGENCE, Rate 50 g/ha): 0
- Plant response rating, Sorghum (sorghum; Rate 200 g/ha, POSTEMERGENCE): 8
- Plant response rating, Sorghum (sorghum; Rate 200 g/ha, PREEMERGENCE): 2
- Plant response rating Barley Igri (barley [3]; 62 g/ha): 50
- Plant response rating Barley Igri (barley [3]; 250 g/ha): 60
- Plant response rating (0 to 100), Barley Igri (barley [3]; Rate 4 g/ha): 30
- Plant response rating (0 to 100), Barley Igri (barley [3]; Rate 16 g/ha): 40
- Plant response rating, Blackgrass (blackgrass; 62 g/ha): 60
- Plant response rating, Blackgrass (blackgrass; 250 g/ha): 90
- Plant response rating (0 to 100), Blackgrass (blackgrass; Rate 4 g/ha): 20
- Plant response rating (0 to 100), Blackgrass (blackgrass; Rate 16 g/ha): 30
- Plant response rating, Soybean (soybean [4]; POSTEMERGENCE, Rate 50 g/ha): 8
- Plant response rating, Soybean (soybean [4]; PREEMERGENCE, Rate 50 g/ha): 4
- Plant response rating, Soybean (soybean [4]; Rate 200 g/ha, POSTEMERGENCE): 9
- Plant response rating, Soybean (soybean [4]; Rate 200 g/ha, PREEMERGENCE): 3
- Plant response rating, Cocklebur (cocklebur; POSTEMERGENCE, Rate 50 g/ha): 8
- Plant response rating, Cocklebur (cocklebur; POSTEMERGENCE, Rate 200 g/ha): 10
- Plant response rating, Cocklebur (cocklebur; PREEMERGENCE, Rate 50 g/ha): 0
- Plant response rating, Cocklebur (cocklebur; Rate 200 g/ha, PREEMERGENCE): 0
- Plant response rating Pigweed (pigweed; 62 g/ha): 100
- Plant response rating Pigweed (pigweed; 250 g/ha): 100
- Plant response rating (0 to 100), Pigweed (pigweed; Rate 4 g/ha): 90
- Plant response rating (0 to 100), Pigweed (pigweed; Rate 16 g/ha): 100
- Plant response rating Ryegrass (ryegrass; 62 g/ha): 50
- Plant response rating Ryegrass (ryegrass; 250 g/ha): 85
- Plant response rating (0 to 100), Ryegrass (ryegrass; Rate 4 g/ha): 30
- Plant response rating (0 to 100), Ryegrass (ryegrass; Rate 16 g/ha): 40
- Plant response rating, Sugar beet (sugar beet; POSTEMERGENCE, Rate 50 g/ha): 10
- Plant response rating, Sugar beet (sugar beet; PREEMERGENCE, Rate 50 g/ha): 9
- Plant response rating, Sugar beet (sugar beet; Rate 200 g/ha, POSTEMERGENCE): 10
- Plant response rating, Sugar beet (sugar beet; Rate 200 g/ha, PREEMERGENCE): 10
- Plant response rating, Chickweed (chickweed [5]; POSTEMERGENCE, Rate 200 g/ha): 10
- Plant response rating, Chickweed (chickweed [5]; PREEMERGENCE, Rate 50 g/ha): 0
- Plant response rating, Chickweed (chickweed [5]; Rate 200 g/ha, PREEMERGENCE): 10
- Plant response rating, Chickweed (chickweed [6]; 62 g/ha): 90
- Plant response rating, Chickweed (chickweed [6]; 250 g/ha): 100
- Plant response rating (0 to 100), Chickweed (chickweed [6]; Rate 4 g/ha): 60
- Plant response rating (0 to 100), Chickweed (chickweed [6]; Rate 16 g/ha): 80
